Source: paper PMC9610298, “Synthesis, Biological Evaluation and Machine Learning Prediction Model for Fluorinated Cinchona Alkaloid-Based Derivatives as Cholinesterase Inhibitors” (Pharmaceuticals, 2022)

Columns and labels:
[1] = target: recombinant human AChE (Homo sapiens, UniProt P22303); test: Reversible inhibition of AChE, Ellman method, enzyme-inhibitor dissociation constants; format: biochemical; settings: ± standard error; ATCh substrate, 25 °C, pH 7.4
Protocol: (§1) As a source of BChE, a purified human BChE, and as AChE, a recombinant human AChE was used, both enzymes kindly provided by Dr. F. Nachon (Département de Toxicologie, Armed Forces Biomedical Research Institute, France). The concentrated stocks of enzymes (BChE: 5.6 µM; AChE: 0.20 µM) were diluted in a phosphate sodium buffer 0.1 M (pH 7.4) containing 0.1% BSA before starting the experiments.
(§2) Enzyme activities were measured spectrophotometrically by the Ellman method at […] using 0.30 mM DTNB as thiol reagent, ATCh as substrate and water in 0.1 M phosphate buffer, pH 7.4. For the inhibition measurements, the reaction mixture contained tested compounds instead of water. […] Measurements were done at 25 °C on a Tecan Infinite M200Pro plate reader (Austria). A detailed description of measurement protocol was described previously.
(§3) The reversible inhibition of BChE and AChE by tested compounds was measured by determining the decrease of enzyme activity towards ATCh in their presence. The activities of the enzymes were measured at different substrate concentrations ([S]; 0.050–0.50 mM) in the absence (v0) and presence (vi) of the given tested compounds concentration ([I]; 0.050–200 µM, depending on the compound) selected to inhibit the enzymes for 20–80%. At least three concentrations of inhibitors for each substrate concentration were used in at least three experiments. The apparent dissociation inhibition constant (Ki,app) was calculated applying the Hunter-Downs equation and linear regression analysis (1):(1) Ki,app=vi/v0−vi⋅I=KI+KI/KS⋅S where y-intercept determines the enzyme-inhibitor dissociation constants (K(I)), while x-intercept determines the enzyme-substrate dissociation constant, K(S). The determination of kinetic constants was carried out using the GraphPadPrism 6.0 program (GraphPad Software, San Diego, CA, USA).

[2] = target: purified human BChE (Homo sapiens, UniProt P06276); test: Reversible inhibition of BChE, Ellman method, enzyme-inhibitor dissociation constants; format: biochemical; settings: for SI, selective index Ki(AChE)/Ki(BChE): times higher preference for BChE over AChE; for Ki: ± standard error, ATCh substrate, 25 °C, pH 7.4
Protocol: as §1, §2, §3

Chain of recombinant human AChE (P22303 32-614): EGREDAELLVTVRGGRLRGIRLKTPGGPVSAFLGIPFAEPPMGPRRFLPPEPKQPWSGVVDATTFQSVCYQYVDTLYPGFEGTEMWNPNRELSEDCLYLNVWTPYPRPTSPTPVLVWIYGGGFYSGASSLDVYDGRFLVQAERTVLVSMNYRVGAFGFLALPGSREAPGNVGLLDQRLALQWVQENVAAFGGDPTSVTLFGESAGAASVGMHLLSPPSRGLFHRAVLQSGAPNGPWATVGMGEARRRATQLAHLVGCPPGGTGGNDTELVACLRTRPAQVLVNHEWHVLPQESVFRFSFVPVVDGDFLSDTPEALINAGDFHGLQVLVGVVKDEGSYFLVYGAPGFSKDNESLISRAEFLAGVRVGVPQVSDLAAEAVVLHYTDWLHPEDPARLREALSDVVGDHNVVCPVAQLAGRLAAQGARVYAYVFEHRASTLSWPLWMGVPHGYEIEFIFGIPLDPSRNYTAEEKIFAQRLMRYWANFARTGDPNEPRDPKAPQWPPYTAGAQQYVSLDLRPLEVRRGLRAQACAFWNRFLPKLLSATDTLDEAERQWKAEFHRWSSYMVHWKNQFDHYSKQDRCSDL
Chain of purified human BChE (P06276 29-602): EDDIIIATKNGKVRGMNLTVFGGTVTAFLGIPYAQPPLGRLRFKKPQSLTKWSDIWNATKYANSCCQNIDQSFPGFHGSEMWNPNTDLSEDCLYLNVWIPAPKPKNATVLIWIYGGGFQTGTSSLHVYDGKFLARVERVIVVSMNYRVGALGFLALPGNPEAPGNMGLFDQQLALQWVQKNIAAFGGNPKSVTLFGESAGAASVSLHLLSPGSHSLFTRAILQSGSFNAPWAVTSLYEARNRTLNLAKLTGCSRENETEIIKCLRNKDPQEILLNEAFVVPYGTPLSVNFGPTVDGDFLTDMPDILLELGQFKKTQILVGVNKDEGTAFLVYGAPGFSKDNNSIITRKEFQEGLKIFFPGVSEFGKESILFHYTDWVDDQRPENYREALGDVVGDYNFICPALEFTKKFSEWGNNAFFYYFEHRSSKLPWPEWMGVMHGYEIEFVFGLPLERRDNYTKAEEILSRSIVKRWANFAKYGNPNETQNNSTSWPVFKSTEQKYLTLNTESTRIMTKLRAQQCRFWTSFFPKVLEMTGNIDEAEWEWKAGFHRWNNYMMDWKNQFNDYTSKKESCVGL

Compound	Ki [1] [µM]	SI, selective index Ki(AChE)/Ki(BChE) [2]	Ki [2] [µM]	times higher affinity of BChE for DHCN over DHCD ([2]; unsubstituted 10,11-dihydro compounds)
C=CC1C[N+]2(Cc3c(F)cccc3Cl)CCC1C[C@@H]2[C@@H](O)c1ccnc2ccccc12 (some centres unmarked) [CN 2Cl-6F, N-(2-chloro-6-fluorobenzyl)cinchoninium bromide]	17 ± 1	14	1.2	–
C=CC1C[N+]2(Cc3ccc(Br)cc3F)CCC1C[C@@H]2[C@@H](O)c1ccnc2ccccc12 (some centres unmarked) [CN 2F-4Br, N-(2-fluoro-4-bromobenzyl)cinchoninium bromide]	16 ± 1	2.9	5.5 ± 0.3	–
C=CC1C[N+]2(Cc3c(F)cccc3C(F)(F)F)CCC1C[C@@H]2[C@@H](O)c1ccnc2ccccc12 (some centres unmarked) [CN 2F-6CF3, N-(2-fluoro-6-trifluoromethylbenzyl)cinchoninium bromide]	61 ± 2	7.9	7.7 ± 0.4	–
C=CC1C[N+]2(Cc3ccccc3F)CCC1C[C@@H]2[C@@H](O)c1ccnc2ccccc12 (some centres unmarked) [CN 2F]	80 ± 2	33	2.4 ± 0.1	–
C=CC1C[N+]2(Cc3ccc(F)c(F)c3)CCC1C[C@@H]2[C@@H](O)c1ccnc2ccccc12 (some centres unmarked) [CN 3,4F]	14 ± 0.2	2.3	6.1 ± 0.2	–
C=CC1C[N+]2(Cc3cc(F)cc(F)c3)CCC1C[C@@H]2[C@@H](O)c1ccnc2ccccc12 (some centres unmarked) [CN 3,5F]	34 ± 3	5.4	6.3 ± 0.2	–
C=CC1C[N+]2(Cc3cccc(C(F)(F)F)c3)CCC1C[C@@H]2[C@@H](O)c1ccnc2ccccc12 (some centres unmarked) [CN 3CF3]	59 ± 2	13	4.4 ± 0.2	–
C=CC1C[N+]2(Cc3cccc(F)c3)CCC1C[C@@H]2[C@@H](O)c1ccnc2ccccc12 (some centres unmarked) [CN 3F]	13 ± 0.4	2.1	6.1 ± 0.3	–
C=CC1C[N+]2(Cc3cccc(OC(F)(F)F)c3)CCC1C[C@@H]2[C@@H](O)c1ccnc2ccccc12 (some centres unmarked) [CN 3OCF3, N-(3-trifluoromethoxybenzyl)cinchoninium bromide]	41 ± 2	8.7	4.7 ± 0.2	–
C=CC1C[N+]2(Cc3ccc(C(F)(F)F)cc3)CCC1C[C@@H]2[C@@H](O)c1ccnc2ccccc12 (some centres unmarked) [CN 4CF3]	31 ± 1	5.2	6 ± 0.3	–
C=CC1C[N+]2(Cc3ccc(F)cc3)CCC1C[C@@H]2[C@@H](O)c1ccnc2ccccc12 (some centres unmarked) [CN 4F, N-(para-fluorobenzyl)cinchoninium bromide]	3.9 ± 0.2	1.5	2.6 ± 0.1	–
C=CC1C[N+]2(Cc3ccc(OC(F)(F)F)cc3)CCC1C[C@@H]2[C@@H](O)c1ccnc2ccccc12 (some centres unmarked) [CN 4OCF3]	19 ± 2	2.4	7.8 ± 0.3	–
C=CC1C[N+]2(Cc3ccccc3)CCC1C[C@@H]2[C@@H](O)c1ccnc2ccccc12 (some centres unmarked) [CN Bzl]	121 ± 12	42	2.9 ± 0.3	–
CCC1C[N+]2(Cc3cccc(C(F)(F)F)c3)CCC1C[C@H]2[C@H](O)c1ccnc2ccccc12 (some centres unmarked) [DHCD 3CF3, N-(3-trifluoromethylbenzyl)-10,11-dihydrocinchonidinium bromide]	25 ± 1	18	1.4 ± 0.1	–
CCC1C[N+]2(Cc3cccc(F)c3)CCC1C[C@H]2[C@H](O)c1ccnc2ccccc12 (some centres unmarked) [DHCD 3F]	27 ± 2	84	0.3 ± 0.02	–
CCC1C[N+]2(Cc3cccc(OC(F)(F)F)c3)CCC1C[C@H]2[C@H](O)c1ccnc2ccccc12 (some centres unmarked) [DHCD 3OCF3, N-(3-trifluoromethoxybenzyl)-10,11-dihydrocinchonidinium bromide]	36 ± 1	5	6.8 ± 0.3	–
CCC1C[N+]2(Cc3ccc(C(F)(F)F)cc3)CCC1C[C@H]2[C@H](O)c1ccnc2ccccc12 (some centres unmarked) [DHCD 4CF3]	15 ± 1	5	3.2 ± 0.2	–
CCC1C[N+]2(Cc3ccc(F)cc3)CCC1C[C@H]2[C@H](O)c1ccnc2ccccc12 (some centres unmarked) [DHCD 4F, N-(4-fluorobenzyl)-10,11-dihydrocinchonidinium bromide]	31 ± 1	8	4.3 ± 0.2	–
CC[C@H]1CN2CC[C@H]1C[C@@H]2[C@@H](O)c1ccnc2ccccc12 [DHCN, 10,11-dihydrocinchonine]	–	–	1.2 ± 0.1	16
